From patent US6660830B1, “Peptides with antiproliferative properties” (priority 1996, dated 2003) come the findings set out here.

Series [1] concerns normal human peripheral blood mononuclear cells. The series can be described thus: Effect on normal peripheral blood mononuclear cells. It counts as cell-based. Conditions: peptide 10^-5 M, 24 hours (FIG. 15). As to the method: The incubation of cells with P3 was performed for a time period of 24 hours.
The test system of series [2] is MCF-7 cells. The series is described as follows: Cell cycle distribution by FACS in MCF-7 breast cancer cells. As to conditions: for morphology of treated cells: peptide 10^-5 M (FIG. 2, 4, 7, 11, 12); for effect on S phase (words, summary of Table 1): MCF-7 stimulated by IGF-1 10^-8 M or insulin 10^-6 M; for effect on S phase (words, summary of Table 1) / G1 (cell population in G1 phase) / G2/M (cell population in G2/M phase) / S (cell population in S phase): peptide 10^-5 M; for G1 (cell population in G1 phase) / G2/M (cell population in G2/M phase) / S (cell population in S phase): FACS. It counts as cell-based. The method, then:
(§1) The experimental setting comprises experiments with the breast cancer cell line MCF-7 containing an intact retinblastoma protein and the human osteosarcoma cell line SAOS-2 containing a defective retinoblastoma protein. Cells are seeded in 12-well plates at 100000 (=one hundred thousand) cells/well/ml in RPMI medium or DMEM medium containing 10% FCS and allowed to adhere for 24 hours. Subsequently, the cells are starved by incubation for 3 days in DMEM without FCS, such that they are synchronized in the G0/G1 phase and then the cells are stimulated by 10% FCS or 10^−8 M IGF-1 or 10^−6 M insulin, respectively, for 24 hours. The effect of each of the added peptides on each of the above modes of stimulation, which effect reflects the rate of cell division, is investigated. The control (cells synchronized in G0/G1) is fixed at time 0 after three days of starvation. The remaining cells (+/−peptide) are fixed after 24 hours. The cells are subsequently analyzed by FACS for their cell cycle distribution. Analogous methods are to be found e.g. in R. Fahraeus et al., Current Biology, 1996, vol. 6, no. 1, pp. 84-91 and L. Zhu et al., Genes & Development, 1993, vol. 7, pp. 1111-1125.

The subject of another series is CCRF-CEM/ACT 400 cells. The series is described as follows: Cytotoxicity by the trypan blue method in CCRF-CEM/ACT 400 resistant leukemia cells. It counts as cell-based. Conditions: asynchronously growing CCRF-CEM/ACT 400 resistant cells, RPMI 10% FCS; peptide 10^-5 M (FIG. 14). As to the method: (§2) The second experimental setting relates to the leukemia cell lines K562 and CCRF-CEM and CCRF-CEM/ACT400. 100000 asynchronously growing cells/well/ml RPMI/10% FCS have each been incubated for 48 hours with each of the peptides in 6-well plates. As a readout, the number of dead cells/200 counted cells is determined according to the trypan blue method (L. D. Attardi et al., The EMBO Journal, 1996, vol. 15, no. 14, pp. 3693-3701 and M. K. Reeder & H. C. Isom, Cell Growth & Differentiation 196, vol. 7, pp. 449-460) after this 48-hour incubation.

In series [3] the test system is SAOS-2 cells. The series can be described thus: Cell cycle distribution by FACS in SAOS-2 osteosarcoma cells. It counts as cell-based, human. As to conditions: SAOS-2 synchronized in G0/G1, serum-free conditions; peptide 10^-5 M (FIG. 8).
Series [4] relates to SAOS-2 cells. The series is described as above. It counts as cell-based, human. As to conditions: for effect on cell cycle phases (words, summary of Table 2): peptide 5x10^-5 M each; for G1 (cell population in G1 phase) / G2/M (cell population in G2/M phase) / S (cell population in S phase): SAOS-2 synchronized in G0/G1, stimulated by 10% FCS for 24 h, peptide 5x10^-5 M, FACS. As to the method:
as §1

For another series, the system named is K562 cells. The series can be described thus: Cytotoxicity by the trypan blue method in K562 leukemia cells. It counts as cell-based. Conditions: asynchronously growing K562 in RPMI; peptide 10^-5 M (FIG. 13). As to the method:
The results have been plotted as the living cells treated with P3 being a percentage of the living cells not treated with P3. The number of the living cells has been determined by counting at least 200 cells at each time point according to the trypan blue method.
as §2

Series [5] has as its system MCF-7 cells. The series can be described thus: Cell cycle distribution by FACS in MCF-7 breast cancer cells. It counts as cell-based.
In the next series the test system is CCRF-CEM cells. The series can be described thus: Cytotoxicity by the trypan blue method in CCRF-CEM sensitive leukemia cells. It counts as cell-based. Conditions: asynchronously growing CCRF-CEM sensitive cells, RPMI 10% FCS; peptide 10^-5 M (FIG. 14). The method, then:
as §2

The mark [6] stands for this setting: MCF-7 stimulated by IGF-1 10^-8 M.
The mark [7] stands for this setting: MCF-7 stimulated by IGF-1 10^-8 M, peptide 10^-5 M (FIG. 2, 4, 11, 12).
Setting [8] is: MCF-7 synchronized in G0/G1, serum-free conditions, peptide 10^-5 M (FIG. 1, 3).
Where [9] appears, read: SAOS-2 stimulated by 10% FCS, peptide 10^-5 M (FIG. 9).
[10] abbreviates: MCF-7 stimulated by EGF 10^-8 M, peptide 10^-5 M (FIG. 6).
Where [11] appears, read: MCF-7 stimulated by estradiol (E2) 10^-9 M, peptide 10^-5 M (FIG. 6).
The mark [12] stands for this setting: asynchronously growing MCF-7 in DMEM containing 10% FCS, peptide 10^-5 M (FIG. 10).
[13] abbreviates: MCF-7 synchronized in G0/G1, stimulated by IGF-1 10^-8 M for 24 h.
Setting [14] is: MCF-7 synchronized in G0/G1, stimulated by insulin 10^-6 M for 24 h.

Positions of bridges follow the written chain, without caps; N, C: chain ends. Non-standard residues stand in square brackets, D forms with d. Chains are numbered I, II in the order given. No end group written: not given here.

Take “I: [dL][dF][dY][dK][dK][dV]GGGK[dR]GKG / II: [dL][dF][dY][dK][dK][dV]GGGK[dR]G / III: [dL][dF][dY][dK][dK][dV]GGG / IV: [dL][dF][dY][dK][dK][dV]GGG (amide I:10-IV:C, I:13-II:C, II:10-III:C) [P3, NH2-[dLdFdYdKdKdV-GGG]4-[1KdRG]2-1KG-COOH]”: the “effect on normal cells” value in series [1] (activated state (b)) and in series [1] (quiescent state (a)) was “no effect” throughout. Also, in series [1] (quiescent or activated), the “morphological changes of treated cells” value was “do not show any morphological changes”. Moreover, the “morphology of treated cells” value is given as “corresponds to that of apoptotic cells” in the series on MCF-7 cells [2] (setting [6]); “corresponds to that of apoptotic cells” in the series on SAOS-2 cells [3]; “corresponds to that of apoptotic cells” with SAOS-2 cells [4] (setting [9]); “corresponds to that of apoptotic cells” with MCF-7 cells [5] (MCF-7, IGF-1 10^-8 M, peptide 5x10^-6 M (FIG. 7)); “corresponds to that of apoptotic cells” in the series with MCF-7 cells [5] (setting [10]); “corresponds to that of apoptotic cells” in the series with MCF-7 cells [5] (setting [11]). Moreover, the “morphology of treated cells” value in the series with MCF-7 cells [5] (setting [8]) and with MCF-7 cells [5] (setting [12]) was “corresponds to that of apoptotic cells” each time. The “effect on cell cycle phases” value with MCF-7 cells [2] (setting [7]) was “increase of the G1 and G2/M phases as well as in a decrease of the S phase”; in the series with MCF-7 cells [2] (setting [8]), “reduces the G1 phase and increases the S phase”; in the series with SAOS-2 cells [3], “reduces the G1 phase and increases the S and G2/M phases”; with SAOS-2 cells [4] (setting [9]), “increases the G1 phase and decreases the S phase”; in the series on MCF-7 cells [5] (setting [10]), “increases the G1- and the G2 phases as well as decreases the S phase”; with MCF-7 cells [5] (setting [11]), “increases the G1- and the G2 phases as well as decreases the S phase”. Further, the “effect on cell cycle phases” value with MCF-7 cells [5] (setting [12]) is “reduces the G1 phase and increases the S phase”. The cytotoxic effect entry in the series with CCRF-CEM/ACT 400 cells and with CCRF-CEM cells was “act in a cytotoxic manner” in each case. Also, the “cytotoxic effect (living treated cells as percentage of living untreated cells, trypan blue)” value in the series on K562 cells is on record as “time-dependent”. Besides, the “blocks the progression of the cell cycle caused by IGF-1” value with MCF-7 cells [5] (MCF-7, IGF-1 10^-8 M, several peptide concentrations (FIG. 7)) was “in a dose-dependent manner”.

As to “NH2-KVLYFKRQIKIWFQNRRMKWKK-COOH (H-KVLYFKRQIKIWFQNRRMKWKK-OH) [P8]”, the “morphology of treated cells” value with MCF-7 cells [2] (setting [6]) was “corresponds to that of apoptotic cells”. Moreover, in the series on MCF-7 cells [2] (setting [7]), the “effect on cell cycle phases” value was “increases the G1 phase and the G2/M phase as well as decreases the S phase”.

On to “NH2-LFYKKVPKKKRKV-COOH (H-LFYKKVPKKKRKV-OH) [P5]”, for which the “effect on S phase (words, summary of Table 1)” value in the series on MCF-7 cells [2] was “reduce the S phase”. For the same substance, the “effect on cell cycle phases” value in the series on MCF-7 cells [2] (setting [8]) was “reduces the G1 phase and increases the S phase”. Besides, in the series with MCF-7 cells [2] (setting [13]), the “G1 (cell population in G1 phase)” value is given as 54.0, the “G2/M (cell population in G2/M phase)” value worked out at 13.6 and the “S (cell population in S phase)” value is recorded as 32.4. The “effect on cell cycle phases (words, summary of Table 2)” value with SAOS-2 cells [4] (SAOS-2 stimulated by 10% FCS) was “increase of the G1 phase and a decrease of the S phase”. Moreover, in the series with SAOS-2 cells [4], the “G1 (cell population in G1 phase)” value was found to be 73.5, the “G2/M (cell population in G2/M phase)” value is listed as 13.3 and the “S (cell population in S phase)” value is on record as 13.2. The “morphology of treated cells” value with MCF-7 cells [5] (setting [8]) is “corresponds to that of apoptotic cells”.

Consider “NH2-LFYKKVRQIKIWFQNRRMKWKK-COOH (H-LFYKKVRQIKIWFQNRRMKWKK-OH) [P6]”, for which the “effect on S phase (words, summary of Table 1)” value in the series on MCF-7 cells [2] is recorded as “reduce the S phase”. The “morphology of treated cells” value in the series on MCF-7 cells [2] (setting [6]) and with MCF-7 cells [5] (setting [8]) was “corresponds to that of apoptotic cells” in each case. For the same substance, the “effect on cell cycle phases” value in the series with MCF-7 cells [2] (setting [7]) is “increases the G1 phase as well as decreases the S phase”; in the series on MCF-7 cells [2] (setting [8]), “reduces the G1 phase and increases the S phase”. Also, the “G1 (cell population in G1 phase)” value in the series on MCF-7 cells [2] (setting [13]) amounted to 53.7; in the series on MCF-7 cells [2] (setting [14]), 48.7; in the series with SAOS-2 cells [4], 76.6. The results for the “G2/M (cell population in G2/M phase)” value in the series with MCF-7 cells [2] (setting [13]), in the series on MCF-7 cells [2] (setting [14]) and with SAOS-2 cells [4] were 18.6, 14.6 and 11.2, respectively. For the same substance, the “S (cell population in S phase)” value came to 27.7 with MCF-7 cells [2] (setting [13]); 12.2 with SAOS-2 cells [4]; 36.6 in the series with MCF-7 cells [5] (MCF-7 synchronized in G0/G1, stimulated by insulin 10^-6 M for 24 h, peptide 10^-5 M, FACS). In addition, the “effect on cell cycle phases (words, summary of Table 2)” value in the series with SAOS-2 cells [4] (SAOS-2 stimulated by 10% FCS) is “increase of the G1 phase and a decrease of the S phase”.

With “NH2-[dKdVdLdYdFdKGGG]4-[1KdRG]2-1KG-COOH (H-[dK][dV][dL][dY][dF][dK]GGG[dK][dV][dL][dY][dF][dK]GGG[dK][dV][dL][dY][dF][dK]GGG[dK][dV][dL][dY][dF][dK]GGGK[dR]GK[dR]GKG-OH; also: branched: four arms on polylysine core) [P7s, combination of dKdVdLdYdFdK, hydropathically homologous to P1, and a polylysine core]”, the “morphology of treated cells” value with MCF-7 cells [2] (setting [6]) is given as “corresponds to that of apoptotic cells”. The “effect on cell cycle phases” value in the series with MCF-7 cells [2] (setting [7]) was “increases the G1 phase and the G2/M phase as well as decreases the S phase”.
